{
  "source": "ChEMBL document CHEMBL1201862",
  "about": "“PubChem BioAssay data set” (2004)",
  "key": {"[1]": {"assay": "control 3'UTR Renilla luciferase suppression, dose response, counter-screen for Shn3 inhibitor project, cell-based, Clone20-Shn3RL, cherry-picked (AID 624133)", "format": "functional"}, "[2]": {"biological_target": "FAD-linked sulfhydryl oxidase ALR (Homo sapiens, UniProt P55789)", "sequence (P55789 whole entry)": "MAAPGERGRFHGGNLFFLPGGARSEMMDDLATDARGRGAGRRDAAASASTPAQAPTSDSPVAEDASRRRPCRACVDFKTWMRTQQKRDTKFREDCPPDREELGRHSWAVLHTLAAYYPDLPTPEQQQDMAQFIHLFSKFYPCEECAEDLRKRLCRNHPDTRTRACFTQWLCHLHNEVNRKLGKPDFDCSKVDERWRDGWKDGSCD", "assay": "inhibitors of human ALR sulfhydryl oxidase, dose response, biochemical, H2O2 detection, luminescence, cherry-pick (AID 493248)"}, "[3]": {"assay": "Shn3 3'UTR reporter inhibitors, dose response, cell-based, Clone20 osteoblasts, firefly luciferase, cherry-picked (AID 624132)", "format": "functional"}, "[4]": {"biological_target": "T1, RNA-binding protein pos-1 (Caenorhabditis elegans, UniProt G5EF15)", "T1 sequence (G5EF15 whole entry)": "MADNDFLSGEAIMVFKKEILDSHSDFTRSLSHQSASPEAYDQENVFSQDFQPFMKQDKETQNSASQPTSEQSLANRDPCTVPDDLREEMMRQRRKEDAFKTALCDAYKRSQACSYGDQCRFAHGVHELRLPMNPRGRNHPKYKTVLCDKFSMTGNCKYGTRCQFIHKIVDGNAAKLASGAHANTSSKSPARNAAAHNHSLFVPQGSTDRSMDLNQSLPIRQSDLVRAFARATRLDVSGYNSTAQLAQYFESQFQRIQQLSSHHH", "assay": "inhibitors of POS-1/mex-3 RNA binding, dose response, biochemical, fluorescence polarization (AID 1964);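 also: purified POS-1 fused to maltose binding protein made in E. coli; potency of compounds blocking POS-1 binding to fluorescent RNA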"}, "cells [5]": {"assay": "cells", "format": "functional, cell-based"}, "[6]": {"biological_target": "T2, Histone-lysine N-methyltransferase NSD2 (Homo sapiens, UniProt O96028)", "T2 sequence (O96028 whole entry)": "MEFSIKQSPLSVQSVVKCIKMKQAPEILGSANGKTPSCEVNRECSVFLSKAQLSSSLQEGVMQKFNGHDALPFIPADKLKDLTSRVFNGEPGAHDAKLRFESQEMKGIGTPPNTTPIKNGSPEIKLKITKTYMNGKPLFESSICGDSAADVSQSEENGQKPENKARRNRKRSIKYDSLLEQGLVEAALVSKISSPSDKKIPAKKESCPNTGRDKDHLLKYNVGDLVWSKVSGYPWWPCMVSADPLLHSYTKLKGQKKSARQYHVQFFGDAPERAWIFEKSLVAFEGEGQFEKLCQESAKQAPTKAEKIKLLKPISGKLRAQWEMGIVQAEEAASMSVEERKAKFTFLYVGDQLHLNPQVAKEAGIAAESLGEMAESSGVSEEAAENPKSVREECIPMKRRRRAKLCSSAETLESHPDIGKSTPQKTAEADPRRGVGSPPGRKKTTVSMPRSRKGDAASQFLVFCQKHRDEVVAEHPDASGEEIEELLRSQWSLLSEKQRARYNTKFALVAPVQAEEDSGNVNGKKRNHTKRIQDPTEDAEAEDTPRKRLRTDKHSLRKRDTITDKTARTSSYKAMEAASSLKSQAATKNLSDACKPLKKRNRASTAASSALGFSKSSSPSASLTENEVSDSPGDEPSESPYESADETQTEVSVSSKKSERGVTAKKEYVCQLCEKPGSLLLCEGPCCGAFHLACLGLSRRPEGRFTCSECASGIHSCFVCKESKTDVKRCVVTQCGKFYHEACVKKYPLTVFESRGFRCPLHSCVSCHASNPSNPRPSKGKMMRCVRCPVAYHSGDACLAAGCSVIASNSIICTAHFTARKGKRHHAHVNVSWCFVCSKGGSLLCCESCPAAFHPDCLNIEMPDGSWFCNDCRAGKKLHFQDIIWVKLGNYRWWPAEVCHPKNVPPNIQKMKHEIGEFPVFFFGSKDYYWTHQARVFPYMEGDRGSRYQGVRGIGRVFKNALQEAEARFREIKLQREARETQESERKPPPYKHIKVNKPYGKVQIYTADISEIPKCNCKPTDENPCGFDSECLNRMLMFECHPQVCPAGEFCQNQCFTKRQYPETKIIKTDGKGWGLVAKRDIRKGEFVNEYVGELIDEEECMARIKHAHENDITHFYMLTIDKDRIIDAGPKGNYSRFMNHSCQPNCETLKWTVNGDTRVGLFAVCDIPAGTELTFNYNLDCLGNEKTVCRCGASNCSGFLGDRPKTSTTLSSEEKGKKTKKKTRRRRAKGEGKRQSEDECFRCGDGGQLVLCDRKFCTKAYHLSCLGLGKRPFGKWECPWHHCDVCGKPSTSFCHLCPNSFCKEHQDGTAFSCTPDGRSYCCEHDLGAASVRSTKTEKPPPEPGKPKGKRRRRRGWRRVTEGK", "format": "biochemical"}, "Caspase-6": {"biological_target": "T3, Caspase-6 (Homo sapiens, UniProt P55212)", "T3 sequence (P55212 whole entry)": "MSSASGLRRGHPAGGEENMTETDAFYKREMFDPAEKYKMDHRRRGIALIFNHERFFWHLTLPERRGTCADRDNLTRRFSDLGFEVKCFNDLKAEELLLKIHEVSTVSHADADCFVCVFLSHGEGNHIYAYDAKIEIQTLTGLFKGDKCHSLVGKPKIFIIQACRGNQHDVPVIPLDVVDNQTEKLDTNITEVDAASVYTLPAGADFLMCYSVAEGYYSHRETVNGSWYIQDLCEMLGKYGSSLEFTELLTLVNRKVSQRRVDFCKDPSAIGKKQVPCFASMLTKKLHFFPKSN", "assay": "human caspase-6 inhibitors, dose response, biochemical, VEID-R110 fluorescence, cherry-pick (AID 720632)"}, "[7]": {"biological_target": "T4, Zinc finger protein mex-5 (Caenorhabditis elegans, UniProt Q9XUB2)", "T4 sequence (Q9XUB2 whole entry)": "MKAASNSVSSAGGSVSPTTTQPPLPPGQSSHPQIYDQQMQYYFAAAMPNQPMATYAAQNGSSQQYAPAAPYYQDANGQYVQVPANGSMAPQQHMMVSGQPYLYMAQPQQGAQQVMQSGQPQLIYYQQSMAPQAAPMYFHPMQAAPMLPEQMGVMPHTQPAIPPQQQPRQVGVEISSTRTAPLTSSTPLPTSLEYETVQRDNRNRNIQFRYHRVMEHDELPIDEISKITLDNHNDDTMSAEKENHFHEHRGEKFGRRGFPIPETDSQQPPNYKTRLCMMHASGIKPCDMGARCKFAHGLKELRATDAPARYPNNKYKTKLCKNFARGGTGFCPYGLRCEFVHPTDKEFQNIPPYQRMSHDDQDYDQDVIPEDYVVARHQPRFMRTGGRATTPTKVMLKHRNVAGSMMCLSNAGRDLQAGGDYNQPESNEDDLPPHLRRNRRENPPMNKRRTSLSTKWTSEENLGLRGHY", "assay": "MEX-5/TCR-2 RNA interaction inhibitors, dose response, biochemical, C. elegans, fluorescence polarization (AID 1960)"}, "Albumin": {"biological_target": "Albumin (Bos taurus, UniProt P02769)", "sequence (P02769 whole entry)": "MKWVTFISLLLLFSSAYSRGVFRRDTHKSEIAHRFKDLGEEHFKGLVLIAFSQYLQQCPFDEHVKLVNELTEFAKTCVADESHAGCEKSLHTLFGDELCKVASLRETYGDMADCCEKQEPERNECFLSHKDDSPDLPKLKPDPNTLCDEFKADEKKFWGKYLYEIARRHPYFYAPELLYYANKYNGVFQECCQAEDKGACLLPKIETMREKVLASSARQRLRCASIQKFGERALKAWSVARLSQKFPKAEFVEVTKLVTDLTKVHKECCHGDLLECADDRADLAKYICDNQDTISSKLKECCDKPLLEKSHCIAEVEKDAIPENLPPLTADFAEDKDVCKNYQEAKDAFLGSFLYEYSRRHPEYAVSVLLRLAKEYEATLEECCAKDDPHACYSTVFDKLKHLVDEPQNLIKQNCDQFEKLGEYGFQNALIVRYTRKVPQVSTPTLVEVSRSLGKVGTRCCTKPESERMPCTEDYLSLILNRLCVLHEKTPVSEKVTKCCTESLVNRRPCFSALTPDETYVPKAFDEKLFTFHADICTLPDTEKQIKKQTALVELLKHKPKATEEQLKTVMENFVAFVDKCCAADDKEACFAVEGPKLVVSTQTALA", "assay": "Counterscreen for inhibitors of T-cell receptor (TCR)-CD3 interaction: Fluorescence-based biochemical high throughput dose response assay to identify inhibitors of T-cell receptor (TCR)-CD3 interaction using a TAMRA-labeled BSA probe.", "format": "functional"}, "[8]": {"assay": "HepG2 cell cytotoxicity, dose response, cytotoxicity control for Shn3 inhibitor project, CellTiter-Glo, cherry-picked (AID 624134)", "format": "functional, cell-based"}, "cells [9]": {"assay": "cells", "format": "functional, cell-based", "remark": "listed apart in the source"}, "[10]": {"assay": "human group III sPLA2 inhibitors, dose response, biochemical, QFRET, IC50 (AID 743457);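 also: green fluorescence rise as the enzyme cleaves BODIPY PC-A2 in liposomes; potency for inhibition of the enzyme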"}, "HEK293": {"system": "HEK293", "assay": "HEK293T cell cytotoxicity, dose response, cytotoxicity control, ATP luminescence, cherry-pick samples (AID 687005);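 also: cells exposed to compound for 48 hours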", "format": "functional, cell-based", "settings": "Homo sapiens"}, "HeLa": {"system": "HeLa", "assay": "HeLa cell cytotoxicity, dose response, cytotoxicity control, ATP luminescence, cherry-pick samples (AID 687004)", "format": "functional, cell-based", "settings": "Homo sapiens"}, "[11]": {"assay": "HEK293 Cytotoxicity Assay Measured in Cell-Based System Using Plate Reader - 7071-01_Inhibitor_Dose_CherryPick_Activity_Set2.", "format": "functional"}, "Protein Wnt-3a": {"biological_target": "Protein Wnt-3a (Mus musculus, UniProt P27467)", "sequence (P27467 whole entry)": "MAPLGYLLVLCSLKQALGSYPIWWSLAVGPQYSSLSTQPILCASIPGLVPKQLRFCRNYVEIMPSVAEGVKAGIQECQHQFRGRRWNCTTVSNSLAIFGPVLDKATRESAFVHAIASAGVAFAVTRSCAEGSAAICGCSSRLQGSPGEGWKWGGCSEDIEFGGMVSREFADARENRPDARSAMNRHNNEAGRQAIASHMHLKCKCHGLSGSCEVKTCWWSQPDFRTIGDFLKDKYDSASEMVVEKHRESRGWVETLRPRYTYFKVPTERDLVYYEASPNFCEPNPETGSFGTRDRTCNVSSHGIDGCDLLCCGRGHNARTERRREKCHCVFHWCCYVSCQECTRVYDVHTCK", "assay": "SAR analysis of small molecule antagonists of Gli-SUFU in a Wnt3a luminescent reporter assay.", "format": "functional"}},
  "note": "The source made the active and inactive calls.",
  "data": [
    {"smiles": "Cc1ccc2nc(-c3ccc(O)c(O)c3)cn2c1", "values": [
      {"measurement": "AC50", "setting": "[1]", "value": "2.47 µM (active)"},
      {"measurement": "AC50", "setting": "[2]", "value": "0.885 µM (active)"},
      {"measurement": "AC50", "setting": "[3]", "value": "4.2 µM (active)"},
      {"measurement": "EC50", "setting": "[4]", "value": "> 75 µM (not active)"},
      {"measurement": "EC50", "setting": "cells [5]", "value": "5.03 µM (active)"},
      {"measurement": "AC50", "setting": "[6]", "value": "> 20 µM (inactive)"},
      {"measurement": "AC50", "setting": "Caspase-6", "value": "12 µM (active)"},
      {"measurement": "EC50", "setting": "[7]", "value": "9.7 µM (active)"},
      {"measurement": "IC50", "setting": "Albumin", "value": "> 94.1 µM (inactive)"},
      {"measurement": "AC50", "setting": "[8]", "value": "> 70 µM (inactive)"},
      {"measurement": "EC50", "setting": "cells [9]", "value": "> 350 µM (not active)"}
    ]},
    {"smiles": "CCc1c(-c2nnc(S)n2Cc2ccccc2)csc1C", "values": [
      {"measurement": "IC50", "setting": "[10]", "value": "> 122 µM (inactive)"}
    ]},
    {"smiles": "C[C@H]1CCCCO[C@H](CN(C)C(=O)Nc2ccc(F)cc2)[C@@H](C)CN([C@@H](C)CO)C(=O)c2cc(NS(=O)(=O)c3ccc(Cl)cc3)ccc2O1", "values": [
      {"measurement": "AC50", "setting": "HEK293", "value": "30.6 µM (active)"},
      {"measurement": "AC50", "setting": "HeLa", "value": "25.5 µM (active)"},
      {"measurement": "AC50", "setting": "[11]", "value": "30.6 µM (active)"}
    ]},
    {"smiles": "CCCCNc1cc(NC(=O)c2ccccc2)ncn1", "values": [
      {"measurement": "IC50", "setting": "Protein Wnt-3a", "value": "> 21.8 µM (inactive)"}
    ]}
  ]
}
